Measured values reported in ChEMBL document CHEMBL5370626, “Targeting the Subpocket Enables the Discovery of Thiadiazole-Pyridazine Derivatives as Glutaminase C Inhibitors” (ACS Med Chem Lett, 2023).
Activity calls are given as the source filed them. The rule behind the calls is not given here.

Tests used:
A549 [1] = assay: Antiproliferative activity against human A549 cells assessed as reduction in cell viability incubated for 72 hrs by Celltiter-glo assay; type: functional, cell-based; conditions: A549, 72 h
[2] = (§1) Inhibition of human recombinant GAC K320A mutant (73 to 598 residues ) expressed in Escherichia coli BL21 (DE3) cells incubated for 10 mins by fluorometric assay
A549 [3] = assay: Antitumor activity against human A549 cells xenografted in Balb/c nude mouse assessed as tumor growth inhibition at 100 mg/kg, po administered once daily 24 days relative to control; type: functional; conditions: A549, 576 h, time 24 day, read-out: TGI
[4] = molecular target: T1, Glutaminase kidney isoform, mitochondrial (Homo sapiens) (UniProt O94925); assay: Inhibition of GAC (unknown origin)
T1 sequence (whole entry): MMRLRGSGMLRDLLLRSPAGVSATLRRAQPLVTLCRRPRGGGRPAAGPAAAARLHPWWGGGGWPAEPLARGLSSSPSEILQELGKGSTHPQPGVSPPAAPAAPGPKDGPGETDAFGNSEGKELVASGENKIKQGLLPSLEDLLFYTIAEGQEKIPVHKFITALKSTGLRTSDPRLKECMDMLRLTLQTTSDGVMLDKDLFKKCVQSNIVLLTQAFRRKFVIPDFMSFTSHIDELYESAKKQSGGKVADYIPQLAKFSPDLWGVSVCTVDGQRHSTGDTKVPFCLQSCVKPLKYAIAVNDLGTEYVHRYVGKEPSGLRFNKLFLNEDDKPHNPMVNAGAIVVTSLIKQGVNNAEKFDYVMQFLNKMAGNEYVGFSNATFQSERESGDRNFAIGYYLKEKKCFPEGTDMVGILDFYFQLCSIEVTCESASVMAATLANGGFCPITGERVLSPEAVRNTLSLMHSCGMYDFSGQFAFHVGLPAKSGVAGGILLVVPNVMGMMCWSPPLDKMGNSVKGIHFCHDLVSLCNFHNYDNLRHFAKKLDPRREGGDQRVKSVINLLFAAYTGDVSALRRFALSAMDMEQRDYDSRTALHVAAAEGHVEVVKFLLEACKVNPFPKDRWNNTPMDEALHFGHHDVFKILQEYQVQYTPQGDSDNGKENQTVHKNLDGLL

Homo sapiens = species on record: Homo sapiens; assay: as §1
[5] = molecular target: T1, Glutaminase kidney isoform, mitochondrial (Homo sapiens); assay: Inhibition of human GAC in A549 cells assessed as reduction in glutamate level at 100 to 1000 nM incubated for 16 hrs by colorimetric assay; type: cell-based; conditions: dose 100-1000 nM
A549 [6] = assay: Inhibition of colony formation in human A549 cells assessed as reduction of colony number measured after 4 days by crystal violet staining-based colony formation assay; type: functional, cell-based; conditions: dose 10-1000 nM, time 4.0 day
[7] = molecular target: T1, Glutaminase kidney isoform, mitochondrial (Homo sapiens); assay: Inhibition of human GAC in A549 cells assessed as induction of ROS level incubated for 16 hrs by DCFH-DA staining based flow cytometric analysis; type: cell-based; conditions: dose 100-1000 nM

Cc1oc(=O)oc1COC(=O)c1cccc(CC(=O)Nc2nnc(N[C@@H]3CCN(c4cccnn4)C3)s2)c1
IC50 (A549 [1]): 5470 nM | EC50 [2]: 3.8 nM

O=C(Cc1ccc(C(=O)O)cc1)Nc1nnc(N[C@@H]2CCN(c3cccnn3)C2)s1
IC50 (A549 [1]): 4720 nM | EC50 [2]: 14.2 nM

O=C(Cc1ccc2ccccc2c1)Nc1nnc(N[C@@H]2CCN(c3cccnn3)C2)s1
IC50 (A549 [1]): 370 nM | EC50 [2]: 26.1 nM

O=C(Cc1cccc(O)c1)Nc1nnc(N[C@@H]2CCN(c3cccnn3)C2)s1
IC50 (A549 [1]): 1080 nM | EC50 [2]: 1.7 nM

O=C(Cc1cccc(C(=O)OCC2CCC2)c1)Nc1nnc(N[C@@H]2CCN(c3cccnn3)C2)s1
IC50 (A549 [1]): 13.8 nM | EC50 [2]: 9.89 nM

COC(=O)c1cccc(CC(=O)Nc2nnc(N[C@@H]3CCN(c4cccnn4)C3)s2)c1
IC50 (A549 [1]): 12.9 nM | EC50 [2]: 0.793 nM

NC(=O)c1cccc(CC(=O)Nc2nnc(N[C@@H]3CCN(c4cccnn4)C3)s2)c1
IC50 (A549 [1]): 368 nM | EC50 [2]: 2.16 nM

O=C(Cc1cccc(OC(F)(F)F)c1)Nc1ccc(CCCCc2nnc(NC(=O)Cc3ccccn3)s2)nn1 [TELAGLENASTAT]
IC50 (A549 [1]): 18.8 nM | inhibition in vivo at 100 mg/kg (A549 [3]): 34.5% | EC50 [2]: 16.4 nM

CCOP(=O)(OCC)c1cccc(CC(=O)Nc2nnc(N[C@@H]3CCN(c4cccnn4)C3)s2)c1
IC50 (A549 [1]): 889 nM | EC50 [2]: 1.55 nM

O=C(Cc1cccc(C(F)(F)F)c1)Nc1nnc(N[C@@H]2CCN(c3cccnn3)C2)s1
IC50 (A549 [1]): 60.4 nM | EC50 [2]: 6.52 nM

O=C(Cc1cccc(OC(F)(F)F)c1)Nc1nnc(N[C@@H]2CCN(c3cccnn3)C2)s1
IC50 (A549 [1]): 1.26 nM | EC50 [2]: 92.8 nM

O=C(Cc1cccc(C(=O)NCCF)c1)Nc1nnc(N[C@@H]2CCN(c3cccnn3)C2)s1
IC50 (A549 [1]): 1170 nM | EC50 [2]: 3.13 nM

Cc1ccccc1Oc1cccc(CC(=O)Nc2nnc(N[C@@H]3CCN(c4cccnn4)C3)s2)c1
IC50 (A549 [1]): 37.1 nM | EC50 [2]: 37.5 nM

CN(C)C(=O)COC(=O)c1cccc(CC(=O)Nc2nnc(N[C@@H]3CCN(c4cccnn4)C3)s2)c1
IC50 (A549 [1]): > 10000 nM | EC50 [2]: 3.15 nM

O=C(Cc1ccco1)Nc1nnc(N[C@@H]2CCN(c3cccnn3)C2)s1
IC50 (A549 [1]): 308 nM | EC50 [2]: 7.45 nM

CC1(C)OB(c2cccc(CC(=O)Nc3nnc(N[C@@H]4CCN(c5cccnn5)C4)s3)c2)OC1(C)C
IC50 (A549 [1]): 1260 nM | EC50 [2]: 8.2 nM

O=C(Cc1cccc(Cc2ccccc2)c1)Nc1nnc(N[C@@H]2CCN(c3cccnn3)C2)s1
IC50 (A549 [1]): 13.1 nM | EC50 [2]: 9.3 nM

O=C(Cc1cccc(B(O)O)c1)Nc1nnc(N[C@@H]2CCN(c3cccnn3)C2)s1
IC50 (A549 [1]): 1180 nM | EC50 [2]: 5.67 nM

CCOC(=O)OCOC(=O)c1cccc(CC(=O)Nc2nnc(N[C@@H]3CCN(c4cccnn4)C3)s2)c1
IC50 (A549 [1]): 1010 nM | EC50 [2]: 3.74 nM

O=C(Cc1cccc(C(=O)O)c1)Nc1nnc(N[C@@H]2CCN(c3cccnn3)C2)s1
IC50 (A549 [1]): 732 nM | INH [4]: 1.48 nM | EC50 [2]: 1.89 nM | INH (Homo sapiens): 157 nM

O=C(Cc1cccc(C(=O)NC2CCC(F)(F)CC2)c1)Nc1nnc(N[C@@H]2CCN(c3cccnn3)C2)s1
IC50 (A549 [1]): 1060 nM | EC50 [2]: 4.26 nM

CN(C)C(=O)c1cccc(CC(=O)Nc2nnc(N[C@@H]3CCN(c4cccnn4)C3)s2)c1
IC50 (A549 [1]): 1830 nM | EC50 [2]: 5.36 nM

O=C(Cc1cccc(P(=O)(O)O)c1)Nc1nnc(N[C@@H]2CCN(c3cccnn3)C2)s1
IC50 (A549 [1]): > 10000 nM | EC50 [2]: 9.68 nM

O=C(Nc1nnc(N[C@@H]2CCN(c3cccnn3)C2)s1)C1(c2ccccc2)CC1
IC50 (A549 [1]): 947 nM | EC50 [2]: > 1000 nM

N#Cc1cccc(CC(=O)Nc2nnc(N[C@@H]3CCN(c4cccnn4)C3)s2)c1
IC50 (A549 [1]): 736 nM | EC50 [2]: 2.1 nM

O=C(Cc1cccc(C(=O)NC2CC(F)(F)C2)c1)Nc1nnc(N[C@@H]2CCN(c3cccnn3)C2)s1
IC50 (A549 [1]): 1070 nM | EC50 [2]: 8 nM

CC(C)OC(=O)c1cccc(CC(=O)Nc2nnc(N[C@@H]3CCN(c4cccnn4)C3)s2)c1
IC50 (A549 [1]): 9.28 nM | inhibition [5]: Active | inhibition (A549 [6]): Dose-Dependent Effect | inhibition [7]: Dose-Dependent Effect | EC50 [2]: 4.03 nM

COC(=O)c1ccc(CC(=O)Nc2nnc(N[C@@H]3CCN(c4cccnn4)C3)s2)cc1
IC50 (A549 [1]): 47.5 nM | EC50 [2]: 4.31 nM

COc1cccc(CC(=O)Nc2nnc(N[C@@H]3CCN(c4cccnn4)C3)s2)c1
IC50 (A549 [1]): 60.4 nM | EC50 [2]: 3.31 nM

O=C(Cc1cccc(C(=O)OCC2CC2)c1)Nc1nnc(N[C@@H]2CCN(c3cccnn3)C2)s1
IC50 (A549 [1]): 51.4 nM | EC50 [2]: 12.9 nM

O=C(CCc1ccccc1)Nc1nnc(N[C@@H]2CCN(c3cccnn3)C2)s1
IC50 (A549 [1]): 744 nM | EC50 [2]: 68.3 nM

O=C(Cc1cccc(-c2nnn[nH]2)c1)Nc1nnc(N[C@@H]2CCN(c3cccnn3)C2)s1
IC50 (A549 [1]): > 10000 nM | EC50 [2]: 3.66 nM

CC(=O)OCOC(=O)c1cccc(CC(=O)Nc2nnc(N[C@@H]3CCN(c4cccnn4)C3)s2)c1
IC50 (A549 [1]): 1090 nM | EC50 [2]: 3.56 nM

O=C(Cc1ccc(CO)cc1)Nc1nnc(N[C@@H]2CCN(c3cccnn3)C2)s1
IC50 (A549 [1]): 1710 nM | EC50 [2]: 12.4 nM

CO[C@H](C(=O)Nc1nnc(N[C@@H]2CCN(c3cccnn3)C2)s1)c1ccccc1
IC50 (A549 [1]): 12.6 nM | EC50 [2]: 3.25 nM

CS(=O)(=O)NC(=O)c1cccc(CC(=O)Nc2nnc(N[C@@H]3CCN(c4cccnn4)C3)s2)c1
IC50 (A549 [1]): > 10000 nM | EC50 [2]: 2.63 nM

O=C(Cc1cccnc1)Nc1nnc(N[C@@H]2CCN(c3cccnn3)C2)s1
IC50 (A549 [1]): 498 nM | EC50 [2]: 9.01 nM

CCOC(=O)c1cccc(CC(=O)Nc2nnc(N[C@@H]3CCN(c4cccnn4)C3)s2)c1
IC50 (A549 [1]): 103 nM | EC50 [2]: 2.68 nM

O=C(Cc1cccs1)Nc1nnc(N[C@@H]2CCN(c3cccnn3)C2)s1
IC50 (A549 [1]): 222 nM | EC50 [2]: 5.18 nM

O=C(Cc1ccccc1)Nc1nnc(N[C@@H]2CCN(c3cccnn3)C2)s1
IC50 (A549 [1]): 103 nM | EC50 [2]: 3.42 nM

CNC(=O)c1cccc(CC(=O)Nc2nnc(N[C@@H]3CCN(c4cccnn4)C3)s2)c1
IC50 (A549 [1]): 108 nM | EC50 [2]: 4.54 nM

O=C(Cc1cccc(F)c1)Nc1nnc(N[C@@H]2CCN(c3cccnn3)C2)s1
IC50 (A549 [1]): 300 nM | EC50 [2]: 2.37 nM
